Data published in patent publication US20220281930A1, “COMPOSITIONS AND METHODS FOR THE TREATMENT OF PATHOLOGICAL PAIN AND ITCH” (DUKE UNIVERSITY, priority 2019, published 2022).

Legend:
[1] = system: KCC2 mRNA; assay: Secondary screen: KCC2 RT-qPCR in primary mouse neurons; assay type: cell-based; settings: Natural Compounds; rank score
Description: (§1) The primary screen encompassed three levels of LUC measurements. The first level of screening yielded a total of 137 compounds with cut-off RLU>125% LUC activity. These 137 compounds were subject to second round of screening, which was carried out in duplicate independent assays to yield the top 103 compounds sorted for highest RLU. The 103 compounds were then subjected to a third round of screening carried out in duplicate independent assays to yield the top 40 compounds which were again ranked. The best 22 of these 40 compounds (ranked for highest RLU activity) were subjected to secondary screening: Cultured neurons were treated with the 22 compounds; RT-qPCR and Clomeleon imaging methodologies (Yeo et al., 2009, J Neurosci 29:14652-14662) were used to determine effects of compounds on KCC2 mRNA expression and [Cl—]i, respectively. Each compound was ranked based on composite scores from primary and secondary screening.
Total RNA was isolated from cultured cell samples using Directzol RNA miniprep kit (ZymoResearch). The protocol includes DNAse digestion to exclude genomic DNA from preparations. Total RNA (1 μg) was reverse transcribed using oligo primers (dT) and SuperScriptIII first-strand synthesis kit (Invitrogen). Gene expression was assessed by quantitative real-time PCR using 2×SYBR Green Master Mix (Qiagen) and a three-step cycling protocol (anneal at 60° C./elongate at 72° C., denature at 95° C.). Specificity of primers was verified by dissociation/melting curve for the amplicons when using SYBR Green as a detector. All reactions were performed in triplicates. The amount of target messenger RNA (mRNA) in the experimental group relative to that in the control was determined from the resulting fluorescence and threshold values (Ct) using the ΔΔCt method. βIII-tubulin was used as housekeeping gene.
(§2) oligodT-initiated reverse transcription of 1 μg total RNA, DNA-se treated, was subjected to RT-qPCR using primers specific for KCC2 for rat and KCC2 for human sequences, normalized for neuronal βIII-tubulin, as previously described (Yeo et al., 2009, J Neurosci 29:14652-14662). For cultured neurons, total RNA was extracted from pelleted cells, and for spinal cord tissue it was extracted from microdissected lumbar spinal cord dorsal horn.
(§3) To identify KCC2 gene expression enhancing compounds, cultured primary cortical neurons were cultured from KCC2-luciferase(LUC)-knockin (KCC2-LUCki) mice (Liedtke et al., 2013, Small 9:1066-1075; Yeo et al., 2013, Proc Natl Acad Sci USA 110:4315-4320) and used LUC metrics as readout for activity of the proximal KCC2 promoter (2.5 kB (Yeo et al., 2009, J Neurosci 29:14652-14662)), which drives LUC in this mouse transgenic line. A Z′ factor of 0.94 was obtained. This strategy will not select for long-range enhancers of KCC2 gene expression that act outside the 2.5 kB core KCC2 promoter. 1057 compounds, contained in two NCI libraries (FIG. 1), related to inhibition of growth of malignantly transformed cells were screened. Iterative screening followed by measurements of KCC2 mRNA (RT-qPCR) and intracellular chloride ([Cl—]i), using clomeleon chloride indicator protein (Kuner and Augustine, 2000, Neuron 27:447-459; Yeo et al., 2009, J Neurosci 29:14652-14662), led to decreasing numbers of confirmed and re-confirmed hits, and 4 “winner” compounds were selected (FIG. 1 and Table 3).

[2] = system: synaptophysin; assay: Immuno-cytochemistry morphometry of primary human cortical neurons, synaptophysin; assay type: cell-based; settings: 400 nM KP
Description: The neuron-enriched cultures were established from fetal cortical specimens at 15-20 weeks of gestation. The protocols for tissue processing complied with all federal and institutional guidelines. The cultures were plated on PEI (polyethyleneimine solution) substrate and maintained in Neurobasal media supplemented with B27 as previously described (Pelsman et al., 2003, International journal of developmental neuroscience 21:117-124; Yeo et al., 2013, Proc Natl Acad Sci USA 110:4315-4320).
For immunostaining, the cultures were treated for 2-4 days with vehicle or 400 nM KP, fixed with 4% PFA at day 10, and processed for double-staining with anti-KCC2 and anti-synaptophysin or anti-NeuN (see Table 1).
The 0.34 micrometer confocal slices through entire cell layers at different optical fields (n=17-28 for each group) of the fixated cultures were acquired using a Zeiss LSM700 confocal microscope.
Image Z-stacks were analyzed using Imaris 9.2.1 software. Optical density intensity sum values for each stack/channel were divided by corresponding data volumes and the resulting values were normalized to the number of specifically labeled cells within each stack. There were no significant differences in the number of cells between vehicle and KP-treated groups.

[3] = system: intracellular chloride ([Cl—]i); assay: Secondary screen: Clomeleon chloride imaging in primary mouse neurons; assay type: cell-based; parameters: chloride reduction (%): concentration or dose not given beside the values
Description: as §1
Chloride imaging of primary cultured cortical neurons was conducted as previously described (Kuner and Augustine, 2000, Neuron 27:447-459; Liedtke et al., 2013, Small 9:1066-1075; Yeo et al., 2009, J Neurosci 29:14652-14662). A Clomeleon expression plasmid was transfected into primary cortical neurons by electroporation (Amaxa Nucleofector Device). Transfected neurons were verified by yellow fluorescent protein (YFP) fluorescence, and ratiometric images (excitation at λ=434 nm, dual emission at λ=485 and 535 nm; for resting chloride, six stable frames at […] were captured, which were averaged) were acquired using RATIOTOOL program. Calibration of Clomeleon signals (535 nm/485 nm emission ratio) was performed by using tributyltin-nigericin to establish a standard curve, which was then normalized for measured intraneuronal pH to take into account the pH sensitivity of Clomeleon.
as §3

[4] = system: KCC2 mRNA; assay: KCC2 mRNA RT-qPCR in microdissected spinal cord dorsal horn; assay type: in vivo, mouse; settings: KP 10 mg/kg; after PSNL vs vehicle
Description: as §2
With the aforementioned findings and in view of the SCDH as the likely site of analgesic action of KP (Coull et al., 2003, Nature 424:938-942; Gagnon et al., 2013, Nat Med 19:1524-1528), SCDH KCC2 expression and function in nerve injury and response to KP was assessed. […] To measure KCC2 mRNA, SCDH Rexed-layers I-II were microdissected with laser capture followed by RT-qPCR. SCDH KCC2 protein expression was measured morphometrically after KCC2 immunolabeling using SCDH laminae I-II as the region-of-interest (FIG. 5B).

With `O=C1Cc2c([nH]c3ccc(Br)cc23)-c2ccccc2N1` [kenpaullone, 9-bromo-7,12-dihydro-indolo [3,2-d] [1]benzazepin-6(5H)-one] the “RT-QPCR Score (triplicates)” value [1] was 2, the “increased synaptophysin expression relative to vehicle” value [2] was 54% and the “Clomeleon Score (duplicates)” value ([3]; Natural Compounds, rank score) was 2. For the same molecule, the “chloride reduction (%)” value ([3]; from the [Cl—]i pair of the same line) was 33.8%, the “chloride [Cl—]i mM” value ([3]; value after compound, control => treated) was 68 => 23 mM and the “KCC2 mRNA expression in SCDH lamina-I/II” value [4] was “rescues significantly attenuated KCC2 mRNA expression”.
